According to patent publication US20250154099A1, “PREPARATION METHOD OF 2-PHENYLINDOLE DERIVATIVES AND APPLICATION THEREOF” (Shihezi University, priority 2022, published 2025):
≈ marks a conversion by molar mass, not a printed value. Like-named read-outs stand apart in the source and are kept apart here.

Legend:
[1] = test system: Drug-resistant Candida albicans CA10; assay: MIC by microdilution method, drug-resistant Candida albicans CA10; type: cell-based; details: clinically isolated azole multi-drug resistant strain CA10; 24 h
Text: (§1) Used bacteria: including drug-resistant bacteria and sensitive bacteria: the used sensitive strains include Cryptococcus neoformans BNCC225501, Candida albicans BNCC186382, Aspergillus fumigatus Fresenius BNCC338385, Escherichia coli BNCC336902, Staphylococcus aureus BNCC186335 and Pseudomonas aeruginosa Migula BNCC337940, and the used drug-resistant Candida albicans is clinically isolated azole multi-drug resistant Candida albicans (CA10) donated by Qianfoshan Hospital in Shandong Province. The strains are stored in normal saline containing 20% glycerol at −80° C. for a long time. Before operation, the strains are lined and transferred to a YPD solid plate, and subjected to static culture at 30° C. for 24 h; single colonies are selected and transferred to a YPD liquid medium, and cultured at 200 rpm at 30° C. overnight; and the overnight cultured bacterial solution is inoculated into a new YPD liquid medium at a ratio of about 1:100, and subjected to shaking culture at 200 rpm at 30° C. for 4 h so that Candida albicans is in a logarithmic phase.
(§2) Culture medium: the culture medium used by the microdilution method is RPMI-1640 culture medium (Gibco).
(§3) 1.2 Operation and results of detection of minimum inhibitory concentration (MIC) of the compounds and the azole drugs by the microdilution method: the MIC of the synthesized compound and the azole drug fluconazole for the standard strains is detected by the microdilution method according to fungal sensitivity detection method (M27-A3) established by the Clinical and Laboratory Standards Institute (CLSI). Specific steps are as follows: the prepared strain concentration is adjusted to 0.5-2.5×10^3 CFU/mL by using RPMI-1640 medium. 200 μL of bacterial solution containing the highest concentration of the drug to be detected is added into the first well of a 96-well plate, and 100 μL of blank bacterial solution without drug is added into each of the other wells; the bacterial solution is diluted to a series of concentration gradients by a double gradient dilution method; the well plate is subjected to static culture at constant temperature of 35° C. for 24 h; after the absorbance (OD) of each concentration gradient at 570 nm is detected by a microplate reader and the absorbance of a blank medium is subtracted, the growth rate=dosing hole value/control hole value ×100%, the inhibition rate=1−growth rate, and the minimum concentration with the inhibition rate greater than 80% is the minimum inhibitory concentration (MIC) value.

[2] = test system: Candida albicans BNCC186382; assay: MIC by microdilution method, sensitive Candida albicans; type: cell-based; details: Candida albicans, read-out: MIC Candida albicans
Text: as §1, §2, §3

[3] = test system: Escherichia coli BNCC336902; assay: MIC by microdilution method, sensitive Escherichia coli; type: cell-based; details: read-out: MIC Escherichia coli
Text: as §1, §2, §3

[4] = test system: Candida albicans CA10; assay: Checkerboard microdilution assay of compound combined with fluconazole, FICI model; type: cell-based; details: for MIC of compound combined: compound concentration in combination with fluconazole; for MIC of compound combined / MIC of azole (fluconazole) combined: inhibition rate about 80%; for FICI: compound plus fluconazole; for MIC of azole (fluconazole) combined: fluconazole concentration in combination with the compound; for MIC: Candida albicans
Experimental: The concentration of Candida albicans CA10 is adjusted to 0.5-2.5×10^3 CFU/mL by using RPMI-1640 medium, and the diluted bacterial solution is used for preparing a working solution of the compound and the azole drug with double concentration gradient. 50 μl of working solution of double concentration of azole drugs and working solution of double concentration of the compound to be detected at each concentration gradient are added in the longitudinal (A-H) direction and transverse (1-12) direction of the 96-well plate respectively, so that the final drug concentration range of fluconazole is 4-64 μg/ml, and the drug concentration range of the compound is 256-16 μg/ml. The 96-well plate is cultured in a constant temperature incubator at 35° C. for 24 h. The amount of viable bacteria is detected with an XTT cell proliferation assay kit, and the absorbance of each well at 490 nm wavelength is detected by the microplate reader. Growth rate=dosing well value/control well value×100%, and inhibition rate=1−growth rate. The MIC when the inhibition rate is about 80% is a break point of the combination of two drugs.
The combination data of the compound and the azole drug collected by the checkerboard microdilution assay are analyzed by an FICI (fractional inhibitory concentration index) model, and the interaction effects are evaluated.
The FICI model can be expressed by the following formula: […]
Wherein: MICA and MICB are MIC values of drug A and drug B used separately, while MICAB and MICBA are the concentrations of drug A and drug B corresponding to the minimum effective dose of the combination of drug A and drug B.

[5] = test system: Pseudomonas aeruginosa Migula BNCC337940; assay: MIC by microdilution method, sensitive Pseudomonas aeruginosa Migula; type: cell-based; details: 24 h, read-out: MIC Pseudomonas aeruginosa Migula
Text: as §1, §2, §3

[6] = test system: Aspergillus fumigatus Fresenius BNCC338385; assay: MIC by microdilution method, sensitive Aspergillus fumigatus Fresenius; type: cell-based; details: Aspergillus fumigatus, 24 h, read-out: MIC Aspergillus fumigatus Fresenius
Text: as §1, §2, §3

[7] = test system: RAW 264.7 murine macrophage cells; assay: MTT cytotoxicity test on RAW 264.7; type: cell-based, mouse; details: for IC50: Mus musculus, RAW264.7, 24 h, read-out: IC50 RAW 264.7 cell viability
Experimental: 3.1.1 Cell line: RAW 264.7 murine macrophage cells are donated by Shihezi University College of Pharmacy, and cultured in a 37° C. constant temperature incubator with high glucose DMEM medium (Gibco), 10% FBS serum (Gibco) and 5% CO2, and subculturing and related experimental operation are conducted when cell fusion degree reaches about 70-80%.
3.1.2 Materials and reagents: fetal bovine serum (American BI company), DMEM high glucose medium (American Gibco company), penicillin-streptomycin solution (Shanghai Solarbio company), PBS buffer solution (American Gibco company), isopropyl alcohol (analytically pure), dimethyl sulfoxide (DMSO) (Shanghai Solarbio company), and MTT powder (Shanghai Solarbio company).
Logarithmic RAW 264.7 cells are taken; cell suspension is prepared with a complete medium; the concentration of the cell suspension is adjusted to about 5×10^4 cells/mL; 200 μl of cell suspension is added into each hole of the 96-well culture plate and cultured in 5% CO2 in an incubator at 37° C. for about 24 h until the cells grow to the cell wall (at density of 50%); the medium is absorbed by a 5 ml needle tube or negative pressure; RAW 264.7 is divided into a blank group, a solvent control group and a drug administration group; in the blank group, there is no cell, and a medium, MTT and DMSO are added; in the solvent control group, cells, the same concentration of drug dissolving media, culture solution, MTT and DMSO are added; in the drug administration group, medical solution for diluting the concentration gradient with serum-free medium (containing 1% PE) is added; each concentration shall set at least 3 complex wells; 100 μl of medical solution is added into each well; and the culture plate is continued to be incubated in the incubator for 24 h. […] 100 μl of DMSO is added into each well to dissolve formazan crystals, and shaken in a shaker for 10 min at low speed to fully dissolve the crystals. The absorbance (OD) value of each well at 490 nm is determined by the microplate reader, and the cell viability is calculated by the formula: Cell viability (%)=(OD drug administration group−OD blank group)/(OD solvent control group−OD blank group)× 100%.
OD values at 490 nm are determined by the experimental method in each group, and the data are subjected to one-way analysis of variance by Graphpad prism 8.0 software.

[8] = test system: Cryptococcus neoformans BNCC225501; assay: MIC by microdilution method, sensitive Cryptococcus neoformans; type: cell-based; details: Cryptococcus neoformans, read-out: MIC Cryptococcus neoformans
Text: as §1, §2, §3

[9] = test system: Staphylococcus aureus BNCC186335; assay: MIC by microdilution method, sensitive Staphylococcus aureus; type: cell-based; details: read-out: MIC Staphylococcus aureus
Text: as §1, §2, §3

[10] = BNCC186382, sensitive strain, 35° C., 24 h, minimum concentration with inhibition rate greater than 80%
[11] = BNCC336902, sensitive strain, 35° C., 24 h, minimum concentration with inhibition rate greater than 80%
[12] = CA10, compound alone, read-out: MIC of compound used separately
[13] = sensitive strain, 35° C., minimum concentration with inhibition rate greater than 80%
[14] = BNCC225501, sensitive strain, 35° C., 24 h, minimum concentration with inhibition rate greater than 80%
[15] = BNCC186335, sensitive strain, 35° C., 24 h, minimum concentration with inhibition rate greater than 80%

SMILES | MIC80 Drug-resistant Candida albicans CA10 [1] [µg/mL] | MIC [2, 10] [µg/mL] | MIC [3, 11] [µg/mL] | MIC of compound combined ([4]; CA10) [µg/mL] | FICI ([4]; CA10) | MIC of azole (fluconazole) combined ([4]; CA10) [µg/mL] | MIC [4, 12] [µg/mL] | MIC [5, 13] [µg/mL] | MIC [6, 13] [µg/mL] | toxicity to RAW 264.7 cells ([7]; 24 h) | IC50 [7] [µM] | MIC [8, 14] [µg/mL] | MIC [9, 15] [µg/mL] | other results
Clc1ccc2cc(-c3ccccc3)[nH]c2c1 [Compound 4] | 32 (≈ 141 µM) | 16 (≈ 70.3 µM) | 16 (≈ 70.3 µM) | 16 | 0.563 | 8 | 32 | 16 (≈ 70.3 µM) | 8 (≈ 35.1 µM) | no obvious toxicity | 100 | 16 (≈ 70.3 µM) | 8 (≈ 35.1 µM) | sensitivity of clinical multi-drug resistant strain CA10 to the azole drug ([4]; combination with fluconazole): can improve the sensitivity
Fc1ccc2cc(-c3ccccc3)[nH]c2c1 [Compound 5] | 256 (≈ 1210 µM) | 16 (≈ 75.7 µM) | 16 (≈ 75.7 µM) | 64 | 0.313 | 8 | > 256 | 256 (≈ 1210 µM) | 16 (≈ 75.7 µM) | no obvious toxicity | 12.5 | 256 (≈ 1210 µM) | 32 (≈ 151 µM) | cell proliferation of RAW 264.7 ([7]; 24 h, different concentrations): may inhibit cell proliferation in a concentration-dependent way
Cc1ccccc1-c1cc2ccccc2[nH]1 [Compound 2] | 32 (≈ 154 µM) | – | – | 8 | 0.313 | 8 | – | – | – | – | 50 | – | – | MIC ([2]; BNCC186382, 24 h): 4 µg/mL (≈ 19.3 µM); MIC ([3]; BNCC336902, 24 h): 8 µg/mL (≈ 38.6 µM); MIC ([4]; CA10, read-out: MIC of compound used separately): 32 µg/mL; MIC [5]: 256 µg/mL (≈ 1240 µM); MIC [6]: 16 µg/mL (≈ 77.2 µM); MIC ([8]; BNCC225501, 24 h): 2 µg/mL (≈ 9.65 µM); MIC ([9]; BNCC186335, 24 h): 8 µg/mL (≈ 38.6 µM)
